{"source": "paper doi:10.1101/2021.09.30.462449v1", "about": "(biorxiv, 2021)", "experiment_in_all_cases": "biochemical", "details_in_all_cases": "read-out: % inhibition mean (Z'Lyte)", "key": {"ABL1 F317L": {"target": "ABL1 F317L (Homo sapiens, UniProt P00519, F317L)"}, "ABL1 T315I": {"target": "ABL1 T315I (Homo sapiens, UniProt P00519, T315I)"}, "AKT1 (PKB alpha)": {"target": "AKT1 (PKB alpha) (Homo sapiens, UniProt P31749)"}, "AKT2 (PKB beta)": {"target": "AKT2 (PKB beta) (Homo sapiens, UniProt P31751)", "sequence (P31751 whole entry)": "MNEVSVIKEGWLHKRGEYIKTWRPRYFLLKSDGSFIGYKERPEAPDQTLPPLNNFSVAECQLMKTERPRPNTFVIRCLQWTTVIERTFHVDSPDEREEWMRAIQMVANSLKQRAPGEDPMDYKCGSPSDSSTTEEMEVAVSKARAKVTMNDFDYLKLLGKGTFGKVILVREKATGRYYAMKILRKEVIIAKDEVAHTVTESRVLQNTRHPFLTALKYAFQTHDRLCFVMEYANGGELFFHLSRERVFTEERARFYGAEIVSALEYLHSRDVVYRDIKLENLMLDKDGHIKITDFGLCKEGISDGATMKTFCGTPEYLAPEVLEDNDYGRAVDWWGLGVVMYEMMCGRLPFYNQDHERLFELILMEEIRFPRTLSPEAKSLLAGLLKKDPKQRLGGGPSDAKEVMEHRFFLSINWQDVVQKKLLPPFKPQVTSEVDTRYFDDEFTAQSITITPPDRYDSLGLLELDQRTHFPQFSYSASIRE"}, "AKT3 (PKB gamma)": {"target": "AKT3 (PKB gamma) (Homo sapiens, UniProt Q9Y243)", "sequence (Q9Y243 whole entry)": "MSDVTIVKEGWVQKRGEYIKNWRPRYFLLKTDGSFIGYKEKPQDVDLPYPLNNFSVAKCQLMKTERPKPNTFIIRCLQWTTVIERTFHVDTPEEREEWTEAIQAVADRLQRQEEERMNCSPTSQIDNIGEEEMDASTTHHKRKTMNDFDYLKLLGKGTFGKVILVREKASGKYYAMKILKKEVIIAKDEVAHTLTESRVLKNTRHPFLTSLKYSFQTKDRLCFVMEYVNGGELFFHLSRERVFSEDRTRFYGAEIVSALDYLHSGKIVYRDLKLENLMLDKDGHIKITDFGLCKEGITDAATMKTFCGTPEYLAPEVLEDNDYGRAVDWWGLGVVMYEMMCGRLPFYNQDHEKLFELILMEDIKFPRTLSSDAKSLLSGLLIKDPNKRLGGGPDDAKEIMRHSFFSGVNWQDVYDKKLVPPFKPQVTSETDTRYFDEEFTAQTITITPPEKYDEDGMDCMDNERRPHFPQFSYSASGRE"}, "CAMK2D (CaMKII delta)": {"target": "CAMK2D (CaMKII delta) (Homo sapiens, UniProt Q13557)"}, "CDK17/cyclin Y": {"target": "CDK17/cyclin Y (Homo sapiens, UniProt Q00537)", "sequence (Q00537 whole entry)": "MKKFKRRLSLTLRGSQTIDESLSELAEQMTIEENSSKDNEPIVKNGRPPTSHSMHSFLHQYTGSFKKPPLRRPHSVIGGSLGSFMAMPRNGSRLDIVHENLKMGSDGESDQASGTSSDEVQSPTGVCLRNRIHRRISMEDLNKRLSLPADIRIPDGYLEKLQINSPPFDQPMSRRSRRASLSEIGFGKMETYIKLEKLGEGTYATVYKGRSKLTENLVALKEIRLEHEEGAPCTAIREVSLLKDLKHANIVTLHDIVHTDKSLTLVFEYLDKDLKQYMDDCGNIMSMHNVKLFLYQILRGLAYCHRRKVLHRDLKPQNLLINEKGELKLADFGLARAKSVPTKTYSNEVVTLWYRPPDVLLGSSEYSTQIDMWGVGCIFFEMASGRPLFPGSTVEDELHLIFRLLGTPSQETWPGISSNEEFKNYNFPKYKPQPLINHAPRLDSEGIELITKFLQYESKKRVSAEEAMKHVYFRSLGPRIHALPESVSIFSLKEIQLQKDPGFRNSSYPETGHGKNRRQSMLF", "sequence (Q8ND76 whole entry partner)": "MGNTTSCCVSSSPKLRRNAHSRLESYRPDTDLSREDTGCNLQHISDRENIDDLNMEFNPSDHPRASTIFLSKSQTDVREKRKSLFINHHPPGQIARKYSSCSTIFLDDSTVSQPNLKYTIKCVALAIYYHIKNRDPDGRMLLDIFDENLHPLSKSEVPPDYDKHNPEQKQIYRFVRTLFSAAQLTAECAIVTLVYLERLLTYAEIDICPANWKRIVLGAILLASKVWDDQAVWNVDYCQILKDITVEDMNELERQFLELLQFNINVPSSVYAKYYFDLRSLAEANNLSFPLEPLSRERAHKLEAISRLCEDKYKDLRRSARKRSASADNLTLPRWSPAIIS"}, "CDK2/cyclin A": {"target": "CDK2/cyclin A (Homo sapiens, UniProt P24941)"}, "CDKL5": {"target": "CDKL5 (Homo sapiens, UniProt O76039)", "sequence (O76039 whole entry)": "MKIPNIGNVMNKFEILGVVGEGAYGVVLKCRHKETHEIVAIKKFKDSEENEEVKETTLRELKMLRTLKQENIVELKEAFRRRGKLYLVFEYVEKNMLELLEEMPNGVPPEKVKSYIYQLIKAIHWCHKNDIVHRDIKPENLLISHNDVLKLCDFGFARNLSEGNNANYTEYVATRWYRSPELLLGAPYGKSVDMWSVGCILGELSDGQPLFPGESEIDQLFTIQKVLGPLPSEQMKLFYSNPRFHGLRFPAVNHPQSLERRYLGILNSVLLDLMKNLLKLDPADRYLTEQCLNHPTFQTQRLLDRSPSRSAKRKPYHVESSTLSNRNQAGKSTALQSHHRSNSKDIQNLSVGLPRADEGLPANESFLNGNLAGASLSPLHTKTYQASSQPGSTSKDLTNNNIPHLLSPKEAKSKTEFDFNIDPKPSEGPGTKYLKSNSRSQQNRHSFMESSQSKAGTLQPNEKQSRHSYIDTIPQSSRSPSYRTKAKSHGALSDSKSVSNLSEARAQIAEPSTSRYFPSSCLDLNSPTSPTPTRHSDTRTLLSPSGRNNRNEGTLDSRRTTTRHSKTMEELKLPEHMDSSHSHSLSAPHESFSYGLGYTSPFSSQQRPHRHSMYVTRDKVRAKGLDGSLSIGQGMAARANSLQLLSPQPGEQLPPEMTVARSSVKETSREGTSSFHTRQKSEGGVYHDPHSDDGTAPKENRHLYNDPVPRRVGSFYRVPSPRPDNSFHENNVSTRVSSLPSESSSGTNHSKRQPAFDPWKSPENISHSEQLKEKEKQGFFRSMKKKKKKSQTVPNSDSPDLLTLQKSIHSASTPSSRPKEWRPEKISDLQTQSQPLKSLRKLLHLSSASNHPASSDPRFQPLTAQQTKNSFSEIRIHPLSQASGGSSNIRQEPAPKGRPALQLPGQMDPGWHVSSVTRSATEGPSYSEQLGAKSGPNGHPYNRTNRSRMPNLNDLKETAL"}, "CHEK1 (CHK1)": {"target": "CHEK1 (CHK1) (Homo sapiens, UniProt O14757)"}, "CLK2": {"target": "CLK2 (Homo sapiens, UniProt P49760)", "sequence (P49760 whole entry)": "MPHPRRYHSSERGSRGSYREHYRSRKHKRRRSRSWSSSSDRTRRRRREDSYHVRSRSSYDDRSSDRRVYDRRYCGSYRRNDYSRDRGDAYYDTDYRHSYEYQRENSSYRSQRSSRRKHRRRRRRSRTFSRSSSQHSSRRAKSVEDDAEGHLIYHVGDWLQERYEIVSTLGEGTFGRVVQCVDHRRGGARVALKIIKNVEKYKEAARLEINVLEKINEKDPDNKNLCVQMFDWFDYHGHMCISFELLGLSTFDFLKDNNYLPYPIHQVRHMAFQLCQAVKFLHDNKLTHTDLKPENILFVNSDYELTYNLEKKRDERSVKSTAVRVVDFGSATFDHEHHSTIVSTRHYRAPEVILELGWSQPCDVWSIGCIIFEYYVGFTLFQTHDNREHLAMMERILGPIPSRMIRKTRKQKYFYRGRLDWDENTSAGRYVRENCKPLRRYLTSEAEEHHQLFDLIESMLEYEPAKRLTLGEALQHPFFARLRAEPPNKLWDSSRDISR"}, "DYRK3": {"target": "DYRK3 (Homo sapiens, UniProt O43781)"}, "EGFR (ErbB1)": {"target": "EGFR (ErbB1) (Homo sapiens, UniProt P00533)"}, "EGFR (ErbB1) C797S": {"target": "EGFR (ErbB1) C797S (Homo sapiens, UniProt P00533, C797S)"}, "EGFR (ErbB1) T790M": {"target": "EGFR (ErbB1) T790M (Homo sapiens, UniProt P00533, T790M)"}, "EPHB2": {"target": "EPHB2 (Homo sapiens, UniProt P29323)"}, "EPHB3": {"target": "EPHB3 (Homo sapiens, UniProt P54753)"}, "JAK2 JH1 JH2": {"target": "JAK2 JH1 JH2 (Homo sapiens, UniProt O60674)"}, "KIT": {"target": "KIT (Homo sapiens, UniProt P10721)"}, "MARK2": {"target": "MARK2 (Homo sapiens, UniProt Q7KZI7)"}, "MERTK (cMER)": {"target": "MERTK (cMER) (Homo sapiens, UniProt Q12866)", "sequence (Q12866 whole entry)": "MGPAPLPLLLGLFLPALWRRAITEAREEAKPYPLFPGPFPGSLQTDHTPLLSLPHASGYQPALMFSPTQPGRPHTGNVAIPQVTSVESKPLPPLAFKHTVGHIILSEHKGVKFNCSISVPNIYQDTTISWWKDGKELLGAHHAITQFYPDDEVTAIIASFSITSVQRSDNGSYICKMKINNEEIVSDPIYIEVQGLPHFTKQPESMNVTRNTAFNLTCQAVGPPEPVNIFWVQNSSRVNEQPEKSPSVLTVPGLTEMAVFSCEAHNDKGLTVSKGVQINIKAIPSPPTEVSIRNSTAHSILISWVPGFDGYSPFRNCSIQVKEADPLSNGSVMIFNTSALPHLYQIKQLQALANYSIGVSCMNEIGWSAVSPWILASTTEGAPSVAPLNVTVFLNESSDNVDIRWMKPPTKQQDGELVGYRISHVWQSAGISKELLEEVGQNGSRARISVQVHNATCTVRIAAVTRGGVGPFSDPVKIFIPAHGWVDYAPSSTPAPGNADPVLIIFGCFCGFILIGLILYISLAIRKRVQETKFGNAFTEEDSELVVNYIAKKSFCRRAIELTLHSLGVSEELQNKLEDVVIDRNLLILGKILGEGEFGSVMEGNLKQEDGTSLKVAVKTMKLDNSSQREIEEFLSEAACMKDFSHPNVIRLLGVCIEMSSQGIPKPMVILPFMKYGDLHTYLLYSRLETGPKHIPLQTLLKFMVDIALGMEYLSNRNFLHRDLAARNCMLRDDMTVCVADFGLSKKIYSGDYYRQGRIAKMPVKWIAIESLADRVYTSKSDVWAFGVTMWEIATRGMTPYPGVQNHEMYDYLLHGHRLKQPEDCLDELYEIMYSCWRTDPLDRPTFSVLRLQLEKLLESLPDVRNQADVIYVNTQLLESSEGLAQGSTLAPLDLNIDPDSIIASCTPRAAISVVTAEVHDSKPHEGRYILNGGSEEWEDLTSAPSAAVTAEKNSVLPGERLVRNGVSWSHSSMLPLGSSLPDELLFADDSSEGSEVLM"}, "MST4": {"target": "MST4 (Homo sapiens, UniProt Q9P289)"}, "PDGFRA (PDGFR alpha)": {"target": "PDGFRA (PDGFR alpha) (Homo sapiens, UniProt P16234)"}, "PIM1": {"target": "PIM1 (Homo sapiens, UniProt P11309)"}, "PIM3": {"target": "PIM3 (Homo sapiens, UniProt Q86V86)"}, "RPS6KB2 (p70S6Kb)": {"target": "RPS6KB2 (p70S6Kb) (Homo sapiens, UniProt Q9UBS0)"}, "TEK (Tie2)": {"target": "TEK (Tie2) (Homo sapiens, UniProt Q02763)"}, "TXK": {"target": "TXK (Homo sapiens, UniProt P42681)", "sequence (P42681 whole entry)": "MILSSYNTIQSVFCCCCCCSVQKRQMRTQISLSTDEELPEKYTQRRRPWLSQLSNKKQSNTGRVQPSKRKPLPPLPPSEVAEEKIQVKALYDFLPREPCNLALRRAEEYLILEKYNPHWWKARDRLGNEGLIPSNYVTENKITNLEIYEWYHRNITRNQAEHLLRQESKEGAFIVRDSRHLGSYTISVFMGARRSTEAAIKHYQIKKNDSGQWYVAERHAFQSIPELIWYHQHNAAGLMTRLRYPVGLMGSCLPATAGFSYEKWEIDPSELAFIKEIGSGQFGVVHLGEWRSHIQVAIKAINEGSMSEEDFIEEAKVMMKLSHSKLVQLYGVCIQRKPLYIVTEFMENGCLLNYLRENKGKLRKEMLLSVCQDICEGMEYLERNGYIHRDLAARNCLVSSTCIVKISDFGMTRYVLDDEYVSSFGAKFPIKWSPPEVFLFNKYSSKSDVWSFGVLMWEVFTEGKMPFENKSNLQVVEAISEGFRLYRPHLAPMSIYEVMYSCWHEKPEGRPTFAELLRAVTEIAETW"}, "YES1": {"target": "YES1 (Homo sapiens, UniProt P07947)"}}}
{"molecule": "COc1ccc2nc3cc(Cl)ccc3c(Nc3cc(CN4CCCC4)c(O)c(CN4CCCC4)c3)c2n1", "note": "[Pyronaridine, 4-[(7-Chloro-2-methoxybenzo[b][1,5]naphthyridin-10-yl)amino]-2,6-bis(1-pyrrolidinylmethyl)phenol phosphate (1:4)]", "values": [{"measurement": "inhibition at 1 µM", "setting": "ABL1 F317L", "result": -1, "unit": "%"}, {"measurement": "inhibition at 1 µM", "setting": "ABL1 T315I", "result": 11, "unit": "%"}, {"measurement": "inhibition at 1 µM", "setting": "AKT1 (PKB alpha)", "result": 4, "unit": "%"}, {"measurement": "inhibition at 1 µM", "setting": "AKT2 (PKB beta)", "result": 1, "unit": "%"}, {"measurement": "inhibition at 1 µM", "setting": "AKT3 (PKB gamma)", "result": 7, "unit": "%"}, {"measurement": "inhibition at 1 µM", "setting": "CAMK2D (CaMKII delta)", "result": -5, "unit": "%"}, {"measurement": "inhibition at 1 µM", "setting": "CDK17/cyclin Y", "result": -2, "unit": "%"}, {"measurement": "inhibition at 1 µM", "setting": "CDK2/cyclin A", "result": 0, "unit": "%"}, {"measurement": "inhibition at 1 µM", "setting": "CDKL5", "result": 4, "unit": "%"}, {"measurement": "inhibition at 1 µM", "setting": "CHEK1 (CHK1)", "result": 8, "unit": "%"}, {"measurement": "inhibition at 1 µM", "setting": "CLK2", "result": 3, "unit": "%"}, {"measurement": "inhibition at 1 µM", "setting": "DYRK3", "result": 1, "unit": "%"}, {"measurement": "inhibition at 1 µM", "setting": "EGFR (ErbB1)", "result": -5, "unit": "%"}, {"measurement": "inhibition at 1 µM", "setting": "EGFR (ErbB1) C797S", "result": -7, "unit": "%"}, {"measurement": "inhibition at 1 µM", "setting": "EGFR (ErbB1) T790M", "result": 2, "unit": "%"}, {"measurement": "inhibition at 1 µM", "setting": "EPHB2", "result": 4, "unit": "%"}, {"measurement": "inhibition at 1 µM", "setting": "EPHB3", "result": -1, "unit": "%"}, {"measurement": "inhibition at 1 µM", "setting": "JAK2 JH1 JH2", "result": -3, "unit": "%"}, {"measurement": "inhibition at 1 µM", "setting": "KIT", "result": -2, "unit": "%"}, {"measurement": "inhibition at 1 µM", "setting": "MARK2", "result": 6, "unit": "%"}, {"measurement": "inhibition at 1 µM", "setting": "MERTK (cMER)", "result": 2, "unit": "%"}, {"measurement": "inhibition at 1 µM", "setting": "MST4", "result": 1, "unit": "%"}, {"measurement": "inhibition at 1 µM", "setting": "PDGFRA (PDGFR alpha)", "result": 2, "unit": "%"}, {"measurement": "inhibition at 1 µM", "setting": "PIM1", "result": 8, "unit": "%"}, {"measurement": "inhibition at 1 µM", "setting": "PIM3", "result": 12, "unit": "%"}, {"measurement": "inhibition at 1 µM", "setting": "RPS6KB2 (p70S6Kb)", "result": -4, "unit": "%"}, {"measurement": "inhibition at 1 µM", "setting": "TEK (Tie2)", "result": 5, "unit": "%"}, {"measurement": "inhibition at 1 µM", "setting": "TXK", "result": 4, "unit": "%"}, {"measurement": "inhibition at 1 µM", "setting": "YES1", "result": -6, "unit": "%"}]}
